Laboratory results as given in US20110130285A1, “COMPOSITION FOR PROMOTING ROOT NODULE FORMATION OF PLANTS AND A METHOD FOR PROMOTING ROOT NODULE FORMATION OF PLANTS” (priority 2009, published 2011).

Legend:
[1] = test system: plant roots; conditions: applied to soil or hydroponic water; leaf vegetables, fruit vegetables, root vegetables, flowers and fruit trees (Japanese Patent No. 2927269); cited from earlier work
[2] = test system: Soybean (Sachiyutaka); test: Inosine applied by irrigation to soybean-growing vermiculite, low and high soil nutrient (Example 4); assay type: in vivo; conditions: 2 ppm and 20 ppm inosine solutions, irrigation 10, 17 and 25 days after seeding; 33 days after seeding; same soil fertilizer condition (low or high soil nutrient); vs distilled water groups
Protocol: Soybean (Sachiyutaka) was transplanted to 1.4 L of soil (vermiculite, moisture content: 50%) contained in each of pots (diameter: 15 cm). The treatment groups included the distilled water groups (Groups 1 and 4) and the inosine application groups (Groups 2, 3, 5 and 6), in which 2 ppm and 20 ppm inosine solutions were applied (Ikuou [Shoko Agri Co., Ltd.] was diluted with distilled water and applied), as shown in Table 3. The distilled water groups and the inosine application groups both include a group in which calcium superphosphate and potassium sulfate were added as fertilizers in amounts of 40 mg/pot in terms of P2O5 and K2O, respectively, and a group in which an organic fertilizer (“Hanasaku Hiryo (1.5-9-4.5)”, Tosho Co., Ltd.) was added in an amount of 2 g/pot (N:P2O5:K2O=30:180:90 mg/pot). The root nodule bacterium (“Mame-Zo”, Tokachi Federation of Agricultural Cooperative Associations) was added at a concentration of 4×10^4 cfu/cm^3 of soil. One individual showing good growth before development of a primary leaf was selected from each pot, and five individuals were used for measurement of each treatment group. Either distilled water or each of the inosine solutions in a volume of 250 ml was applied by irrigation, 10, 17 and 25 days after the seeding. The inosine concentrations in the soil given as a one-time application were 0.36 ppm for the 2 ppm solution groups, and 3.6 ppm for the 20 ppm solution groups, which were equivalent to 282 g/ha and 2,825 g/ha, respectively. Under the low nutrient soil condition (Groups 1 to 3), etiolation of the leaves was observed and considered to be due to deficiency of trace components. Accordingly, a solution of the composition shown in Table 4 was applied in a volume of 100 ml/pot by irrigation, 20 days and 27 days after the transplantation of the soybean. Even in this case, the nutrient concentration was lower than that of the high soil nutrient groups (Groups 4 to 6). [table] Thirty-three days after the seeding, the number of root nodules (FIG. 7), the dry weight of root nodules (FIG. 8), the dry weight of aboveground parts (FIG. 9), and the dry weight of underground parts (FIG. 10) were measured. Under the same soil fertilizer condition, the applications of the 2 ppm and 20 ppm inosine solutions both increased all of the number of root nodules, the dry weight of root nodules, the dry weight of aboveground parts and the dry weight of underground parts, as compared with the distilled water groups (0 ppm groups).

[3] = test system: Soybean (Sachiyutaka); test: Inosine applied by irrigation into soybean-growing black soil (Example 2); assay type: in vivo; conditions: 34 days after seeding; for Dry weight of aboveground part / Dry weight of underground part: 2 ppm inosine, irrigation, relative value, distilled water group taken as 100
Protocol: Soybean (Sachiyutaka) was seeded in 1 kg of soil (marketed black soil, moisture content: 35%) contained in each of the pots. Calcium superphosphate and potassium sulfate were added as fertilizers in the amounts of 40 mg/pot, in terms of P2O5 and K2O, respectively. The treatment groups included the distilled water group and the 2 ppm inosine solution group. One individual showing good growth before development of a primary leaf was selected from each pot, and five individuals were used for each treatment group. Either the distilled water or the inosine solution in a volume of 250 ml was applied to the soil in the pot by irrigation, 10, 14 and 19 days after the seeding. The inosine concentration in the soil given as a one-time application was 0.5 ppm, which was equivalent to 325 g/ha, in the 2 ppm solution group. Thirty-four days after the seeding, the number of root nodules (FIG. 3), the dry weight of root nodules (FIG. 4), the dry weight of aboveground parts, and the dry weight of underground parts (Table 1) were measured. The dry weight of root nodules, the dry weight of aboveground parts, and the dry weight of underground parts were indicated with relative values based on the values of the distilled water group, which were taken as 100. The application of the 2 ppm inosine solution increased all of the number of root nodules, the dry weight of root nodules, the dry weight of aboveground parts and the dry weight of underground parts.

[4] = test system: soybean (Tanba-kuro, Chusei-hikari-kuro, Sachiyutaka); test: Inosine sprayed on soil surface: root nodule formation and growth of soybean (Example 1); assay type: in vivo; conditions: 2 ppm and 20 ppm inosine solution, 250 ml sprayed on soil surface 7, 10 and 15 days after seeding, measured 20 days after seeding, all varieties Tanba-kuro, vs distilled water
Description: Various varieties of soybeans (black soybeans: Tanba-kuro and Chusei-hikari-kuro, white soybean: Sachiyutaka) were each seeded in 0.6 L of soil (marketed vermiculite, fertilizer was not added) contained in each of No. 4 pots (diameter: 12 cm). For each variety, 7 individuals showing good growth before development of primary leaf were selected per pot. Seven individuals were used for each of the following treatment groups.
2. 2 ppm Inosine solution group
3. 20 ppm Inosine solution group
4. 100 ppm Inosine solution group
Each solution in a volume of 250 ml was splayed on the soil surface in the pot, 7, 10 and 15 days after the seeding. The inosine concentrations in the soil given as a one-time application were 0.83 ppm for the 2 ppm solution group, 8.3 ppm for the 20 ppm solution group, and 41.7 ppm for the 100 ppm solution group, which were equivalent to 442 g/ha, 4,425 g/ha, and 22.1 kg/ha, respectively. The inosine solutions were prepared by diluting a 2% inosine solution (Ikuou, Shoko Agri Co., Ltd., containing 0.52% KOH as pH modifier in order to promote dissolution of inosine) with distilled water.
Twenty days after the seeding, the number of root nodules (FIG. 1) and the dry weight of aboveground parts (FIG. 2) were measured.

[5] = test system: Soybean (Sachiyutaka); test: Inosine applied to soybean by foliar spray, soil inoculated with Bradyrhizobium japonicum (Example 3); assay type: in vivo; conditions: 32 days after seeding; for Dry weight of aboveground part / Dry weight of underground part: foliar spray, table prints Inosine (ppm) 2, text 10 ppm, relative value, distilled water group taken as 100
Protocol: Soybean (Sachiyutaka) was seeded in 0.7 kg of soil (marketed black soil, moisture content: 35%) contained in each of pots. Calcium superphosphate and potassium sulfate were added as fertilizers in the amounts of 28 mg/pot, in terms of P2O5 and K2O, respectively. As root nodule bacterium, “Mame-Zo” (containing a soybean root nodule bacterium, Bradyrhizobium japonicum, Tokachi Federation of Agricultural Cooperative Associations, http://www.nokyoren.or.jp/material.html) was added to the soil at a root nodule bacterium concentration of 10^4 cfu/cm^3 of soil. The treatment groups included the distilled water group and the 10 ppm inosine solution group. One individual showing good growth before development of a primary leaf was selected from each pot, and five individuals were used for each treatment group. Either distilled water or the inosine solution in a volume of 5 ml was applied by foliar spray, 10, 14 and 19 days after the seeding. To the distilled water and the inosine solution, a spreading composition (Approach BI, Kao Corp., “Approach” is a registered trade name of Kao Corp.) was added at a concentration of 0.1 v/v %. The spray amount of inosine given as a one-time application was 10 g/ha in the 10 ppm inosine solution group. Thirty-two days after the seeding, the number of root nodules (FIG. 5), the dry weight of root nodules (FIG. 6), the dry weight of aboveground parts, and the dry weight of underground parts (Table 2) were measured. The dry weight of root nodules, the dry weight of aboveground parts, and the dry weight of underground parts were indicated with relative values based on the values of the distilled water group, which were taken as 100. The application of the 10 ppm inosine solution increased all of the number of root nodules, the dry weight of root nodules, the dry weight of aboveground parts and the dry weight of underground parts.

[6] = 2 ppm inosine solution, irrigation 10, 14 and 19 days after seeding, vs distilled water group
[7] = 10 ppm inosine solution, 5 ml foliar spray 10, 14 and 19 days after seeding, vs distilled water group

OC[C@H]1O[C@@H](n2cnc3c(O)ncnc32)[C@H](O)[C@@H]1O [Inosine, inosine]
growth of plant roots [1]: promote the growth of plant roots
dry weight of aboveground parts [2]: increased
dry weight of root nodules [2]: increased
dry weight of underground parts [2]: increased
number of root nodules [2]: increased
dry weight of root nodules [3, 6]: increased
number of root nodules [3, 6]: increased
Dry weight of aboveground part [3]: 105.1
Dry weight of underground part [3]: 107.2
Dry weight of aboveground part ([3]; listed as inosine): increased
Dry weight of underground part ([3]; listed as inosine): increased
dry weight of aboveground parts [4]: clearly increased
number of root nodules [4]: clearly increased
dry weight of root nodules [5, 7]: increased
number of root nodules [5, 7]: increased
Dry weight of aboveground part [5]: 122.0
Dry weight of underground part [5]: 111.9
Dry weight of aboveground part ([5]; listed as inosine): increased
Dry weight of underground part ([5]; listed as inosine): increased
